We go through 16 compounds from patent US4500531A, “Therapeutical use of (1-cinnamoyl or 1-phenethylcarbonyl) piperazine derivatives” (priority 1982, dated 1985).

For data set [1] the following is noted: cited from earlier work; for vasodilatory activity: earlier patents and literature; for pharmacological activity as previously considered: up to the present, in the pharmacological field, earlier literature.
Data set [2] is described as follows: pharmacological study: stimulation or protection of cerebral functions. The class given is in vivo. Particulars: thorough pharmacological study. As to the method:
The stimulating or protecting activities have been shown particularly by the test of the mnesic retention of exploratory activity carried out in accordance with the following method: in an ACTIMETRE APELAB apparatus (BOISSIER and SIMON, Arch. Inter. Pharmacodyn. 158, 212, (1965), the exploratory activity of SWISS-WEBSTER male mice was measured for 5 minutes, then the animals were given an intraperitoneal injection or oral administration of the derivatives of formula (I), the salts thereof or of physiological serum. After a week, the exploratory activity of the treated animals is again measured and the effect of the mnesic retention is measured by an habituation, i.e., by a statistically significant reduction (t of STUDENT in paired groups) of the exploratory activity.

Data set [3] is described as follows: test of the mnesic retention of exploratory activity (habituation). It counts as in vivo, SWISS-WEBSTER male mice. Conditions: Mus musculus, ip, 168 h, read-out: % of the diminution of the exploratory activity; for inhibition in vivo at 10 mg/kg: dose 10 mg/kg i.p.
A short description of data set [4]: approximate acute toxicity (method of MILLER and TAINTER). Particulars: in vivo; for mortality: read-out: lethality. As for the experimental part: The approximate acute toxicity is determined according to the method described by MILLER and TAINTER in Proc. Soc. Exp. Biol. Med. 57, 261, (1944).
Where [5] appears, read: dose 3 mg/kg i.p., retest after one week, mice.

Counter-ions that a name gives are not always drawn. Like-named read-outs stand apart in the source and are kept apart here.

`CCOC(=O)CN1CCN(C(=O)/C=C/c2cc(OC)c(OC)c(OC)c2)CC1`: the vasodilatory activity result in data set [1] is “peripheral and coronary vasodilators”.

Consider `COc1cc(/C=C/C(=O)N2CCN(CC(=O)N3CCCC3)CC2)cc(OC)c1OC`, for which, in data set [1], the vasodilatory activity result is “peripheral and coronary vasodilators”.

Consider `COc1cc(/C=C/C(=O)N2CCN(CC(=O)O)CC2)cc(OC)c1OC` [Code Number 71, trans 1-(3,4,5-trimethoxy)cinnamoyl 4-hydroxycarbonylmethyl piperazine, hydrochloride], for which the “activity in the stimulation or protection of cerebral functions” value in data set [2] is on record as “important activities in the stimulation or protection of cerebral functions”. In data set [1] (listed as Ia, hydrochloride), the “pharmacological activity as previously considered” value (“pharmacological activity” below) was “inactive”.

Consider `COc1cc(/C=C\C(=O)N2CCN(CC(=O)N3CCCC3)CC2)cc(OC)c1OC` [Code Number 72, cis 1-(3,4,5-trimethoxy)cinnamoyl 4-pyrrolidinocarbonylmethyl)piperazine, oxalate], for which the “activity in the stimulation or protection of cerebral functions” value in data set [2] is “important activities in the stimulation or protection of cerebral functions”. Further, the “pharmacological activity” value in data set [1] (listed as Ib) is “inactive”.

As usually defined, the LD50 is the dose at which mortality reaches 50%. Low readings indicate a more toxic substance, high ones a less toxic substance. For the compound `COc1cc(/C=C/C(=O)N2CCN(CC(=O)NC(C)C)CC2)cc(OC)c1OC` [compound 65], the inhibition in vivo at 10 mg/kg in data set [3] (retest after one week, mice) is 17.9%. This compound also registered an LD50 in data set [4] (iv) of 475 mg/kg.

For `COc1cc(/C=C/C(=O)N2CCN(CC(=O)N3CCCCC3)CC2)cc(OC)c1OC` [compound 66], the inhibition in vivo at 3 mg/kg in data set [3] (setting [5]) worked out at 35.2%. In data set [4] (po), the LD50 is 2250 mg/kg.

With `COc1cc(/C=C/C(=O)N2CCN(CC(=O)N3CCCCCCC3)CC2)cc(OC)c1OC` [compound 67], in data set [3] (setting [5]), the inhibition in vivo at 3 mg/kg stood at 26.4%. In data set [4] (iv), this compound showed an LD50 of 225 mg/kg.

As to `COc1ccc(CCN(C)C(=O)CN2CCN(C(=O)/C=C/c3cc(OC)c(OC)c(OC)c3)CC2)cc1OC` [compound 68], in data set [3] (retest after one week, mice), the inhibition in vivo at 10 mg/kg is 15.8%. Also, the LD50 in data set [4] (iv) is 200 mg/kg.

Regarding `COc1cc(/C=C/C(=O)N2CCN(CC(=O)NC(C)C)CC2)cc(OC)c1O` [compound 69], the inhibition in vivo at 3 mg/kg in data set [3] (setting [5]) stood at 23.8%. For the same compound, the median lethal dose (LD50) in data set [4] (po) worked out at 2000 mg/kg. Also, the mortality in data set [4] (po, 2000 mg/kg p.o.) worked out at 0%.

Regarding `COc1cc(CCC(=O)N2CCN(CC(=O)NC(C)C)CC2)cc(OC)c1OC` [compound 70], the inhibition in vivo at 30 mg/kg in data set [3] (dose 30 mg/kg i.p., retest after one week, mice) came to 16.2%. For the same compound, in data set [4] (po), the LD50 was determined as 2000 mg/kg. In addition, the mortality in data set [4] (po, 2000 mg/kg p.o.) was determined as 0%.

Take `COc1cc(/C=C/C(=O)N2CCN(CC(=O)O)CC2)cc(OC)c1OC` [compound 71]: the inhibition in vivo at 1 mg/kg in data set [3] (dose 1 mg/kg i.p., retest after one week, mice) amounted to 31.9%. Also, the LD50 in data set [4] (po) was 1000 mg/kg. Further, in data set [4] (po, 1000 mg/kg p.o.), the mortality worked out at 0%.

As for `COc1cc(/C=C\C(=O)N2CCN(CC(=O)N3CCCC3)CC2)cc(OC)c1OC` [compound 72], the inhibition in vivo at 3 mg/kg in data set [3] was 21%.

With `COc1cc(/C=C/C(=O)N2CCN(CC(=O)O)CC2)cc(OC)c1OC` [drawing 11], the “pharmacological activity” value in data set [1] is “non-active”.

On to `COc1cc(/C=C\C(=O)N2CCN(CC(=O)N3CCCC3)CC2)cc(OC)c1OC` [drawing 13], for which the “pharmacological activity” value in data set [1] is on record as “non-active”.

Take `COc1cc(CCC(=O)N2CCN(CC(=O)NC(C)C)CC2)cc(OC)c1OC` [drawing 15]: the vasodilatory activity entry in data set [1] is “peripheral and coronary vasodilators”.

Regarding `COc1cc(/C=C/C(=O)N2CCN(CC(=O)NC(C)C)CC2)cc(OC)c1O` [drawing 16], in data set [1], the vasodilatory activity result is “coronary vasodilator”.
